The test system of assay [1] is Histamin-Freisetzung aus Mastzellen. Put plainly: allergically induced histamine release (sensitised rats, method of Shore et al.). Type of assay: cell-based, Ratten. The conditions noted are these: Mast cell, concentration 10 µmol/l, read-out: Hemmung der Freisetzung. From the text: Die pharmakologische Testung auf Wirksamkeit bei der allergisch induzierten Histaminfreisetzung an sensibilisierten Ratten erfolgte gemäß der Versuchsvorschrift von P.A. Shore et al., I. Pharmacol. Exp. Ther., 127 (1959), S. 182.
Die Verbindung gemäß gemaß Beispiel 1 zeigt folgende Werte: Bei der allergisch induzierten Histamin-Freisetzung ergibt ein Konzentration 10 µmol/l eine 25 % - Hemmung der Freisetzung.

For the next assay, the system named is Spätphaseneosinophile. Put plainly: inhibition of late-phase eosinophils in guinea pigs (Cartwright; eosinophil counting). Type of assay: in vivo, Meerschweinchen. The conditions noted are these: 30 mg pro Kilogramm Körpergewicht, p.o. The procedure:
(§1) Die Verbindung gemäß Beispiel 16 zeigt im Versuch der Hemmung der Spätphaseneosinophile in Meerschweinchen gemäß der Vorschrift von Cartwright, Diagnostic Laboratory Hematology, 1968, S. 48 und Mac Fortare et al, Eosinophil Counting, Brit. Med. 9., 2, 1187 (1951) in der Dosis von 30 mg pro Kilogramm Körpergewicht, gegeben p.o., einen Hemmwert von 80 %. Bei der Hemmung der LTD-4-Rezeptor-Bindung gemäß Borbe und Zierenberg, Pharmacopsychiatry 18, 314 319 (1985) ergab sich eine Hemmung von 50 % der Aktivität bei einer Konzentration von 7,4 µmol/l.

The target in the next assay is T1, LTD-4-Rezeptor (Homo sapiens, UniProt Q9Y271).
T1 sequence (Q9Y271 1-337): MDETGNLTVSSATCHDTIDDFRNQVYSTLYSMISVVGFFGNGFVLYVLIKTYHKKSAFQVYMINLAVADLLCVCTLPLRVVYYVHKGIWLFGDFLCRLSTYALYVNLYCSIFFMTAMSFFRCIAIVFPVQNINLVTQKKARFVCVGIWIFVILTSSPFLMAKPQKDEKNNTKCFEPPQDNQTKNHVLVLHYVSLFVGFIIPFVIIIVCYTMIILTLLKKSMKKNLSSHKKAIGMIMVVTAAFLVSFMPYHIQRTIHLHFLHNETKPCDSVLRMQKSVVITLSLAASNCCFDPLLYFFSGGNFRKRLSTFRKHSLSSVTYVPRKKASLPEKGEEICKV
The experiment in a line: inhibition of LTD-4 receptor binding (Borbe and Zierenberg). The conditions noted are these: read-out: Hemmung von 50 % der Aktivität bei einer Konzentration von. The procedure: as §1

For the molecule `O=C1CN2N=C(c3ccccc3)c3ccccc3C2=NN1` [Beispiel 1, 7-Phenyl-2H-triazino(3,4a)phthalazin-3(4H)-on], in assay [1], the inhibition at 10 µM was determined as 25%.

With `CN1CC(=O)NN=C1c1ccc(OCc2ccc3ccccc3n2)c(Cl)c1` [Beispiel 16, 3-{3-Chlor-4-[(2-chinolyl)methoxy]phenyl}-4-methyl-4,5-dihydro-1,2,4-triazin-6-on], the Hemmwert in the assay with Spätphaseneosinophile was determined as 80%. The IC50 on LTD-4-Rezeptor was determined as 7.4 µM.

The values above are taken from patent publication EP0599152A1, “Triazinones and Triazinophthalazinones possessing antiasthmatic/antiallergic, positive inotropic and antihypertensive activities” (ASTA Medica Aktiengesellschaft, priority 1992, dated 1994).
